Measured values reported in patent US4590178A (Ajinomoto Company, Incorporated, priority 1982, dated 1986).

Tested on: spontaneously hypertensive rats
Assay: Antihypertensive activity: systolic blood pressure measured indirectly on conscious SHR after peroral dosing
Type: in vivo, rat
Conditions: for Systolic Blood Pressure, Pretreatment: SHR (male, 13 months, 2 per sample), before 35 mg/kg peroral single dose; for Systolic Blood Pressure, 4 hrs after administration / Δ Blood Pressure: SHR; for Systolic Blood Pressure, 4 hrs after administration: 4 hours after 35 mg/kg peroral single dose; for Δ Blood Pressure: 4 hours after 35 mg/kg peroral single dose versus pretreatment
Experimental: The antihypertensive activity of part of the amino acid derivatives prepared above, was determined.
As subject animals 2 SHR were used which had been trained enough and been confirmed to be hypertensive spontaneously hypertensive rats (male, 13 months of age, the body weight of 400 to 440 g) per sample.
As an instrument for measuring the blood pressure a Programmed Electro-Sphygmomanometer PE-300 (Narco Co., U.S.A.) was used, and the blood pressure was indirectly measured on conscious rats.
An aqueous solution or suspension of a sample (35 mg/kg) was once force-fed into the stomach by means of a peroral probe.
An antihypertensive activity of part of the amino acid derivatives prepared above was determined.
As subject animals there were used 2 SHR which had been trained enough and been confirmed to be hypertensive spontaneously hypertensive rats (male, 13 months of age, the body weight of 400~440 g) per sample.
As an instrument for measuring the blood pressure there was used Programmed Electro-Sphygmomanometer PE-300 (Narco Co., U.S.A.), and the blood pressure was indirectly measured on conscious rats.
An antihypertensive activity of the product prepared above was determined.

CSCC[C@H](NP(=O)(CCc1ccccc1)OCc1ccccc1)C(=O)N1CCC[C@H]1C(=O)N1CCC[C@H]1C(=O)[O-].CSCC[C@H](NP(=O)(CCc1ccccc1)OCc1ccccc1)C(=O)N1CCC[C@H]1C(=O)N1CCC[C@H]1C(=O)[O-].[Ca+2] (stereo partly drawn) [Example 55, N-(O-Benzyl-P-phenethylphosphonyl)-L-methionyl-L-prolyl-L-proline calcium salt]
Systolic Blood Pressure, Pretreatment: 210 mm Hg | Systolic Blood Pressure, 4 hrs after administration: 180 mm Hg | Δ Blood Pressure: -30 mm Hg

Diethylphosphoryl-L-lysyl-L-prolyl-L-proline calcium salt [Example 56]
Systolic Blood Pressure, Pretreatment: 204 mm Hg | Systolic Blood Pressure, 4 hrs after administration: 181 mm Hg | Δ Blood Pressure: -23 mm Hg

Dibenzylphosphoryl-L-alanyl-L-prolyl-L-proline L-lysine salt [Example 24]
Systolic Blood Pressure, Pretreatment: 192 mm Hg | Systolic Blood Pressure, 4 hrs after administration: 161 mm Hg | Δ Blood Pressure: -31 mm Hg

C[C@H](NP(=O)(OCc1ccccc1)OCc1ccccc1)C(=O)N1CCC[C@H]1C(=O)N1C[C@H](O)C[C@H]1C(=O)O.N=C(N)NCCC[C@H](N)C(=O)O (relative stereo) [Example 16, Dibenzylphosphoryl-L-alanyl-L-prolyl-trans-L-hydroxyproline L-arginine salt]
Systolic Blood Pressure, Pretreatment: 181 mm Hg | Systolic Blood Pressure, 4 hrs after administration: 162 mm Hg | Δ Blood Pressure: -19 mm Hg

C[C@H](NP(=O)(CCc1ccccc1)OCc1ccccc1)C(=O)N1CCC[C@H]1C(=O)N1CCC[C@H]1C(=O)O.NC(N)=NCCC[C@H](N)C(=O)O (stereo partly drawn) [Example 27, N-(O-benzyl-P-phenethylphosphonyl)-L-alanyl-L-prolyl-L-proline L-arginine salt]
Systolic Blood Pressure, Pretreatment: 180 mm Hg | Systolic Blood Pressure, 4 hrs after administration: 152 mm Hg | Δ Blood Pressure: -28 mm Hg

Dibenzylphosphoryl-L-alanyl-L-prolyl-L-proline calcium salt [Example 53]
Systolic Blood Pressure, Pretreatment: 220 mm Hg | Systolic Blood Pressure, 4 hrs after administration: 188 mm Hg | Δ Blood Pressure: -32 mm Hg

C[C@H](NP(=O)(CCc1ccccc1)OCc1ccccc1)C(=O)N1CCC[C@H]1C(=O)N1CCC[C@H]1C(=O)OCc1ccccc1 (stereo partly drawn) [Example 26, N-(O-benzyl-P-phenethylphosphonyl)-L-alanyl-L-prolyl-L-proline benzylester]
Systolic Blood Pressure, Pretreatment: 182 mm Hg | Systolic Blood Pressure, 4 hrs after administration: 160 mm Hg | Δ Blood Pressure: -22 mm Hg

Dibenzylphosphoryl-L-alanyl-L-prolyl-D-proline L-arginine salt [Example 15]
Systolic Blood Pressure, Pretreatment: 182 mm Hg | Systolic Blood Pressure, 4 hrs after administration: 167 mm Hg | Δ Blood Pressure: -15 mm Hg

Diethylphosphoryl-L-alanyl-L-prolyl-L-proline L-arginine salt [Example 25]
Systolic Blood Pressure, Pretreatment: 183 mm Hg | Systolic Blood Pressure, 4 hrs after administration: 156 mm Hg | Δ Blood Pressure: -27 mm Hg

C[C@H](NP(=O)(OCc1ccccc1)OCc1ccccc1)C(=O)N1CCC[C@H]1C(=O)N[C@@H](Cc1ccccc1)C(=O)O.N=C(N)NCCC[C@H](N)C(=O)O [Example 5, Dibenzylphosphoryl-L-alanyl-L-prolyl-L-phenylalanyl L-arginine salt]
Systolic Blood Pressure, Pretreatment: 188 mm Hg | Systolic Blood Pressure, 4 hrs after administration: 173 mm Hg | Δ Blood Pressure: -15 mm Hg

C[C@H](NP(=O)(OCc1ccccc1)OCc1ccccc1)C(=O)N1CCC[C@H]1C(=O)O.NC(N)=NCCC[C@H](N)C(=O)O [*, Dibenzyl phosphorylL-alanyl-L-proline Larginine salt, reference compound]
Systolic Blood Pressure, Pretreatment: 198 mm Hg | Systolic Blood Pressure, 4 hrs after administration: 193 mm Hg | Δ Blood Pressure: -5 mm Hg

Dibenzylphoshoryl-L-alanyl-L-prolyl-L-alanine L-arginine salt [Example 12]
Systolic Blood Pressure, Pretreatment: 193 mm Hg | Systolic Blood Pressure, 4 hrs after administration: 182 mm Hg | Δ Blood Pressure: -11 mm Hg

C[C@H](NP(=O)(O)OCc1ccccc1)C(=O)N1CCC[C@H]1C(=O)N1CCC[C@H]1C(=O)O.C[C@H](NP(=O)(O)OCc1ccccc1)C(=O)N1CCC[C@H]1C(=O)N1CCC[C@H]1C(=O)O.N.N [Example 57, Monobenzylphosphoryl-L-alanyl-L-propyl-L-proline diammonium salt]
Systolic Blood Pressure, Pretreatment: 195 mm Hg | Systolic Blood Pressure, 4 hrs after administration: 167 mm Hg | Δ Blood Pressure: -28 mm Hg

Dibenzylphosphoryl-L-isoleucyl-L-prolyl-L-proline L-arginine salt [Example 18]
Systolic Blood Pressure, Pretreatment: 192 mm Hg | Systolic Blood Pressure, 4 hrs after administration: 171 mm Hg | Δ Blood Pressure: -21 mm Hg

CSCC[C@H](NP(=O)(CCc1ccccc1)OCc1ccccc1)C(=O)N1CCC[C@H]1C(=O)N1CCC[C@H]1C(=O)O.NC(N)=NCCC[C@H](N)C(=O)O (stereo partly drawn) [Example 35, N-(O-Benzyl-P-phenethylphosphonyl)-L-methionyl-L-prolyl-L-proline L-arginine salt]
Systolic Blood Pressure, Pretreatment: 191 mm Hg | Systolic Blood Pressure, 4 hrs after administration: 158 mm Hg | Δ Blood Pressure: -33 mm Hg

CCCCCP(=O)(O)N[C@@H](C)C(=O)N1CCC[C@H]1C(=O)N1CCC[C@H]1C(=O)[O-].CCCCCP(=O)(O)N[C@@H](C)C(=O)N1CCC[C@H]1C(=O)N1CCC[C@H]1C(=O)[O-].[Na+].[Na+] [Example 38, N-n-Amylphosphonyl-L-alanyl-L-prolyl-L-proline 2 sodium salt]
Systolic Blood Pressure, Pretreatment: 187 mm Hg | Systolic Blood Pressure, 4 hrs after administration: 167 mm Hg | Δ Blood Pressure: -20 mm Hg

N=C(N)NCCC[C@H](NP(=O)(Cc1ccccc1)Cc1ccccc1)C(=O)N1CCC[C@H]1C(=O)N1CCC[C@H]1C(=O)O [Example 21, Dibenzylphosphoryl-L-arginyl-L-prolyl-L-proline]
Systolic Blood Pressure, Pretreatment: 191 mm Hg | Systolic Blood Pressure, 4 hrs after administration: 167 mm Hg | Δ Blood Pressure: -24 mm Hg

CCOP(=O)(CCc1ccccc1)N[C@@H](CCSC)C(=O)N1CCC[C@H]1C(=O)N1CCC[C@H]1C(=O)O.NC(N)=NCCC[C@H](N)C(=O)O (stereo partly drawn) [Example 40, N--(O--ethyl-P--phenethylphosphonyl)-L-methionyl-L-prolyl-L-proline L-arginine salt]
Systolic Blood Pressure, Pretreatment: 196 mm Hg | Systolic Blood Pressure, 4 hrs after administration: 166 mm Hg | Δ Blood Pressure: -30 mm Hg

C[C@H](NP(=O)(O)CCc1ccccc1)C(=O)N(CC(=O)N1CCC[C@H]1C(=O)[O-])C1Cc2ccccc2C1.C[C@H](NP(=O)(O)CCc1ccccc1)C(=O)N(CC(=O)N1CCC[C@H]1C(=O)[O-])C1Cc2ccccc2C1.[Na+].[Na+] [Example 29, N-Phenethylphosphonyl-L-alanyl-N-(2-indanyl)glycyl-L-proline 2 sodium salt]
Systolic Blood Pressure, Pretreatment: 203 mm Hg | Systolic Blood Pressure, 4 hrs after administration: 172 mm Hg | Δ Blood Pressure: -31 mm Hg

CSCC[C@H](NP(=O)(OCc1ccccc1)OCc1ccccc1)C(=O)N1CCC[C@H]1C(=O)N1CCC[C@H]1C(=O)O.N=C(N)NCCC[C@H](N)C(=O)O [Example 33, Dibenzylphosphoryl-L-methionyl-L-propyl-L-proline L-arginine salt]
Systolic Blood Pressure, Pretreatment: 186 mm Hg | Systolic Blood Pressure, 4 hrs after administration: 168 mm Hg | Δ Blood Pressure: -18 mm Hg

COC(=O)[C@@H]1CCCN1C(=O)[C@@H]1CCCN1C(=O)[C@H](C)NP(=O)([O-])CCc1ccccc1.[Na+] [Example 80, N-Phenethylphosphonyl-L-alanyl-L-prolyl-L-proline methylester sodium salt]
Systolic Blood Pressure, Pretreatment: 193 mm Hg | Systolic Blood Pressure, 4 hrs after administration: 183 mm Hg | Δ Blood Pressure: -10 mm Hg

Diethylphosphoryl-L-lysyl-L-prolyl-L-proline L-arginine salt [Example 23]
Systolic Blood Pressure, Pretreatment: 190 mm Hg | Systolic Blood Pressure, 4 hrs after administration: 165 mm Hg | Δ Blood Pressure: -25 mm Hg

C[C@H](NP(=O)(CCc1ccccc1)OCc1ccccc1)C(=O)N(CC(=O)N1CCC[C@H]1C(=O)O)C1Cc2ccccc2C1.NC(N)=NCCC[C@H](N)C(=O)O (stereo partly drawn) [Example 30, N-(O-Benzyl-P-phenethylphosphonyl)-L-alanyl-N-(2-indanyl)glycyl-L-proline L-arginine salt]
Systolic Blood Pressure, Pretreatment: 184 mm Hg | Systolic Blood Pressure, 4 hrs after administration: 154 mm Hg | Δ Blood Pressure: -30 mm Hg

NCCCC[C@H](NP(=O)(O)CCc1ccccc1)C(=O)N1CCC[C@H]1C(=O)N1CCC[C@H]1C(=O)[O-].NCCCC[C@H](NP(=O)(O)CCc1ccccc1)C(=O)N1CCC[C@H]1C(=O)N1CCC[C@H]1C(=O)[O-].[Na+].[Na+] [Example 36, N^α -Phenethylphosphonyl-L-lysyl-L-prolyl-L-proline 2 sodium salt]
Systolic Blood Pressure, Pretreatment: 200 mm Hg | Systolic Blood Pressure, 4 hrs after administration: 177 mm Hg | Δ Blood Pressure: -23 mm Hg

O=C(O)CC[C@H](NP(=O)(OCc1ccccc1)OCc1ccccc1)C(=O)N1CCC[C@H]1C(=O)N1CCC[C@H]1C(=O)O [Example 22, Dibenzylphosphoryl-L-glutamyl-L-propyl-L-proline]
Systolic Blood Pressure, Pretreatment: 206 mm Hg | Systolic Blood Pressure, 4 hrs after administration: 196 mm Hg | Δ Blood Pressure: -10 mm Hg

Dibenzylphosphoryl-L-alanyl-L-prolyl-L-aspartic acid L-arginine salt [Example 3]
Systolic Blood Pressure, Pretreatment: 208 mm Hg | Systolic Blood Pressure, 4 hrs after administration: 197 mm Hg | Δ Blood Pressure: -11 mm Hg
